{"source": "patent US6716819B2", "about": "“Use of xylitol to reduce ionic strength and activate endogenous antimicrobials for prevention and treatment of infections” (University of Iowa Research Foundation, priority 2000, dated 2004)", "key": {"non-CF epithelia": {"tested_on": "non-CF epithelia", "assay_type": "in vitro ADME, human", "procedure": "FIGS. 1(A-C). Permeability of xylitol added to the apical surface of non-CF epithelia. Xylitol (138 mM in 60 μl) was added to the apical surface of differentiated airway epithelia at time zero. Apical liquid was removed and volume determined at times indicated. Xylitol was measured by NMR. Data are mean±SEM; n=4. Some SEM bars are hidden by symbols.\nAirway epithelial cells were isolated from tracheal and bronchial tissue. Cells were seeded onto collagen-coated, semi-permeable membranes (0.6 cm^2 Millicel-HA; Millipore, Bedford, Mass.) and grown at the air-liquid interface as previously described (Smith, J. J., S. M. Travis, E. P. Greenberg, and M. J. Welsh. 1996. Cystic fibrosis airway epithelia fail to kill bacteria because of abnormal airway surface fluid. Cell. 85:229-236; and erratum 287(222); Yamaya, M., W. E. Finbeiner, S. Y. Chun, and J. H. Widdicombe. 1992. Differentiated structure and function of cultures from human tracheal epithelium. Am. J. Physiol. 262:L713-L724; Zabner, J., B. G. Zeiher, E. Friedman, and M. J. Welsh. 1996. […] All epithelia were evaluated with scanning electron microscopy for the development of a ciliated apical surface.\nProton nuclear magnetic resonance spectroscopy was used to measure the xylitol concentration in the fluid on the apical surface. […] Concentrations were then determined by comparing the measured peak integral to a standard curve for xylitol. […]"}, "E. coli": {"tested_on": "E. coli", "experiment": "Bacterial killing by nasal lavage fluid, luminescence assay", "assay_type": "cell-based", "conditions": "increasing xylitol concentration (serial dilutions of 300 mM), 4 hours at 30° C.", "procedure": "FIG. 4. Effect of modifying ionic strength and xylitol concentration of killing of E. coli by nasal lavage liquid. Nasal lavage liquid was diluted with increasing concentrations of NaCl (bottom X-axis) or xylitol (top X-axis). SEM are smaller than the symbol.\nNasal lavage fluid was collected from normal volunteers. A flexible catheter (18-gauge; Jelco, Tampa, Fla.) was inserted into each nostril and the area flushed four times with 4 ml of sterile water. Cells were removed by centrifugation and the fluid was filtered with a sequential 0.8/0.2 μm Supor Acrodisc PF (GelamnSciences, Ann Arbor, Mich.). To study the effect of xylitol on bacterial killing by endogenous antimicrobial factors, a luminescence assay was used in which E. coli express the genes from Photorhabdus luminescens (Travis, S. M., B. A. D. Conway, J. Zabner, J. J. Smith, N. N. Anderson, P. K. Singh, E. P. Greenberg, and M. J. Welsh. 1999. Activity of Abundant Antimicrobials of the Human Airway. Am. J. Respir. Cell. Mol. Biol. 20:872-879). As previously described, this assay reports bacterial viability. Briefly, bacteria were grown to exponential phase at 30° C., centrifuged, and resuspended in 20 mM potassium phosphate with 2% Lauria-Bertani medium. […] After incubation at 30° C. for 4 hours, luminescence was measured with a luminometer (MLX Luminometer; Dynex Technologies Inc.; Chantilly, Va.). […]"}, "CF epithelia": {"tested_on": "CF epithelia", "experiment": "Bacteria deposited into liquid covering CF epithelia", "assay_type": "cell-based, human", "conditions": "bacteria grew on untreated or saline-treated epithelia"}, "[1]": {"tested_on": "coagulase-negative Staphylococcus", "from_the_text": "Effect of xylitol administration to nasal mucosa on coagulase-negative Staphylococcus.\nSubjects were over 18 years old. […] Twenty-one normal healthy subjects (10 male and 11 female, age 20 to 52 years) participated.\nThe design was a double-blind, randomized, cross-over study. Subjects were randomized to one of two groups: xylitol followed by saline or saline followed by xylitol. A culture of both anterior nares was obtained on day zero. Then subjects sprayed each nostril with a prefilled syringe of solution 4 times per day for 4 days. On the morning of day 5, subjects did their final application at breakfast time, then a nasal swab was obtained 2 hours later. No treatment was administered for the next 7 days. Subjects then repeated the protocol with the opposite solution. The saline solution was 0.9% NaCl in water (Baxter Health Care Corp., Deerfield, Ill.). The xylitol solution was 5% xylitol (304 mM) in water. The solutions were nebulized using an Accuspray syringe (Becton Dickinson Pharmaceutical Systems, Franklin Lakes, N.J.), containing 250 μl of solution. The xylitol and saline syringes were identical. The mass medium diameter of particles was ˜60 μm. It was impossible to disguise the sweet taste of xylitol.\nSamples for cultures were obtained with sterile rayon swabs (Culturette Collection and Transport System, Becton Dickinson Microbiology Systems, Sparks, Md.). […] The plates were incubated at 37° C. for 24 hours and the colonies of coagulase-negative Staphylococcus colonies were identified and counted using a Cling-On Grid (Spiral Biotech, Bethesda, Md.). […]\nA randomized, double-blind, cross-over study was performed. The nasal mucosa was swabbed and the number of coagulase-negative Staphylococcus was determined by culture. […] After 4 days, the number of nasal coagulase-negative Staphylococcus was counted again. […]\nAnalysis of variance for a cross-over design was applied on the change in bacterial count from pretreatment to post treatment. […] Thus, the comparison of xylitol vs. saline was evaluated from the data of both nostrils and both sequences."}, "[2]": {"conditions": "in chewing gum, lozenges, or syrup; cited from earlier work"}}}
{"compound": "OC[C@@H](O)[C@H](O)[C@@H](O)CO", "note": "[xylitol]", "values": [{"measurement": "xylitol permeability", "setting": "non-CF epithelia", "result": "not high"}, {"measurement": "time after which approximately half the applied xylitol would diffuse to the basolateral surface", "setting": "non-CF epithelia; human, 138 mM", "result": "~11", "unit": "h"}, {"measurement": "killing of E. coli by nasal lavage fluid", "setting": "E. coli", "result": "not affected"}, {"measurement": "fate of bacteria deposited into xylitol-containing liquid covering CF epithelia", "setting": "CF epithelia", "result": "the bacteria were killed"}, {"measurement": "adverse effects reported by subjects", "setting": "[1]; in vivo", "result": "none of the subjects tested reported adverse effects"}, {"measurement": "median change in coagulase-negative Staphylococcus count", "setting": "[1]; normal subjects, nasal spray 4 times a day for 4 days, interquartile range in brackets", "result": "500 (interquartile range of 1152 to 120) cfu"}, {"measurement": "average reduction of coagulase-negative Staphylococcus in treated nostrils", "setting": "[1]; normal subjects, nasal spray 250 μl per nostril 4 times a day for 4 days, p=0.05 vs saline", "result": "597±242", "unit": "cfu"}, {"measurement": "decrease in incidence of acute otitis media", "setting": "[2]", "result": "20-40%"}]}
